Experimental data reported in patent publication US11590139B2, “Substituted aminopurine compounds, compositions thereof, and methods of treatment therewith” (Signal Pharmaceuticals, LLC, priority 2014, dated 2023).
Read-outs that look alike come from different tables or passages of the source. Values belong to the molecule of their own block, whether it stands above or below them.

Test system: Lox-IMVI melanoma cell line
Test: Lox-IMVI anti-proliferative assay (growth inhibition, Cell Titer-Glo)
Assay type: cell-based, human
Details: Homo sapiens
Outline: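 Cells grown in RPMI + 10% FBS were exposed to compound at 0.5 nM to 10 μM (10-point, 3-fold dilution, duplicate, 0.2% DMSO final) for 72 h at 37 °C, 5% CO2. Viability was read by ATP luminescence at t0 and 72 h. IC50 came from a four-parameter logistic fit normalized to DMSO control.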

[1] = Lox-IMVI anti-proliferative assay, IC50 activity level, read-out: Activity
[2] = Lox-IMVI melanoma cell line, anti-proliferative assay, read-out: Activity (IC50 activity level)
[3] = IC50 activity level in the cell-based Lox-IMVI anti-proliferative assay, read-out: Activity

SMILES: C[C@]1(C(N)=O)CC[C@H](n2c(Nc3c(F)cc(C#N)cc3F)nc3cnc(NC4CCCC4)nc32)CC1 [Example 487, (1r,4r)-4-(8-(4-cyano-2,6-difluorophenylamino)-2-(cyclopentylamino)-9H-purin-9-yl)-1-methylcyclohexanecarboxamide]
- IC50 [1]: > 1000 nM

SMILES: Cc1ccc(S(=O)(=O)N2CCC[C@@H](Nc3ncc4nc(Nc5c(F)cc(C#N)cc5Cl)n([C@H]5CC[C@@H](C(N)=O)CC5)c4n3)C2)cc1 [Example 795, (1S,4s)-4-(8-(2-chloro-4-cyano-6-fluorophenylamino)-2-((R)-1-tosylpiperidin-3-ylamino)-9H-purin-9-yl)cyclohexanecarboxamide]
- IC50 [2]: > 1000 nM

SMILES: C[C@]1(C(N)=O)CC[C@@H](n2c(Nc3c(F)cc(Cl)cc3F)nc3cnc(N[C@H]4CCC[C@H](O)C4)nc32)CC1 [Example 614, (1R,4s)-4-(8-(4-chloro-2,6-difluorophenylamino)-2-((1S,3S)-3-hydroxycyclohexylamino)-9H-purin-9-yl)-1-methylcyclohexanecarboxamide]
- IC50 [2]: < 250 nM

SMILES: C[C@]1(C(N)=O)CC[C@@H](n2c(Nc3c(Cl)cc(F)cc3Cl)nc3cnc(N[C@@H]4CCC[C@H](O)C4)nc32)CC1 [Example 567, (1S,4s)-4-(8-(2,6-dichloro-4-fluorophenylamino)-2-((1R,3S)-3-hydroxycyclohexylamino)-9H-purin-9-yl)-1-methylcyclohexanecarboxamide]
- IC50 [1]: 500 to 1000 nM

SMILES: NC(=O)[C@H]1CC[C@@H](n2c(Nc3c(F)cc(Cl)cc3F)nc3cnc(NC[C@@H]4CCCC[C@@H]4O)nc32)CC1 [Example 657, (1R,4s)-4-(8-(4-chloro-2,6-difluorophenylamino)-2-(((1S,2S)-2-hydroxycyclohexyl)methylamino)-9H-purin-9-yl)cyclohexanecarboxamide]
- IC50 [2]: > 1000 nM

SMILES: N#Cc1cc(F)c(Nc2nc3cnc(N[C@@H]4CCC(F)(F)C4)nc3n2[C@H]2CC[C@@H](C(N)=O)CC2)c(F)c1 [Example 697, (1S,4s)-4-(8-(4-cyano-2,6-difluorophenylamino)-2-((R)-3,3-difluorocyclopentylamino)-9H-purin-9-yl)cyclohexanecarboxamide]
- IC50 [2]: 250 to 500 nM

SMILES: C[C@]1(C(N)=O)CC[C@@H](n2c(Nc3c(Cl)cc(F)cc3Cl)nc3cnc(N[C@H]4CCC[C@H](O)C4)nc32)CC1 [Example 613, (1R,4s)-4-(8-(2,6-dichloro-4-fluorophenylamino)-2-((1S,3S)-3-hydroxycyclohexylamino)-9H-purin-9-yl)-1-methylcyclohexanecarboxamide]
- IC50 [2]: < 250 nM

SMILES: CC[C@H](C)Nc1ncc2nc(Nc3c(Cl)cccc3Cl)n([C@H]3CC[C@@H](C(N)=O)CC3)c2n1 [Example 336, (1R,4s)-4-(2-(sec-butylamino)-8-(2,6-dichlorophenylamino)-9H-purin-9-yl)cyclohexanecarboxamide]
- IC50 [3]: > 1000 nM

SMILES: C[C@]1(C(N)=O)CC[C@@H](n2c(Nc3c(F)cc(C#N)cc3F)nc3cnc(NC4CCC4)nc32)CC1 [Example 601, (1s,4s)-4-(8-(4-cyano-2,6-difluorophenylamino)-2-(cyclobutylamino)-9H-purin-9-yl)-1-methylcyclohexanecarboxamide]
- IC50 [2]: < 250 nM

More lines, now with the values ahead:

- IC50 [1]: < 250 nM
SMILES: N#Cc1cc(Cl)c(Nc2nc3cnc(N[C@@H]4CCC[C@H](O)C4)nc3n2[C@H]2CC[C@@H](C(N)=O)CC2)c(Cl)c1 [Example 455, (1S,4s)-4-(8-(2,6-dichloro-4-cyanophenylamino)-2-((1R,3S)-3-hydroxycyclohexylamino)-9H-purin-9-yl)cyclohexanecarboxamide]

- IC50 [1]: > 1000 nM
SMILES: NC(=O)[C@H]1CC[C@@H](n2c(Nc3cc(F)c(Cl)cc3F)nc3cnc(N[C@H]4CCC[C@H](O)C4)nc32)CC1 [Example 465, (1R,4s)-4-(8-(4-chloro-2,5-difluorophenylamino)-2-((1S,3S)-3-hydroxycyclohexylamino)-9H-purin-9-yl)cyclohexanecarboxamide]

- IC50 [2]: < 250 nM
SMILES: N#Cc1cc(Cl)c(Nc2nc3cnc(N[C@H]4CCOC[C@H]4F)nc3n2[C@H]2CC[C@@H](C(N)=O)CC2)c(Cl)c1 [Example 765, (1R,4s)-4-(8-(2,6-dichloro-4-cyanophenylamino)-2-((3S,4S)-3-fluorotetrahydro-2H-pyran-4-ylamino)-9H-purin-9-yl)cyclohexanecarboxamide]

- IC50 [3]: 500 to 1000 nM
SMILES: NC(=O)[C@H]1CC[C@@H](n2c(Nc3c(Cl)cc(Cl)cc3Cl)nc3cnc(N[C@H]4CCC[C@@H](O)C4)nc32)CC1 [Example 373, (1R,4s)-4-(2-((1S,3R)-3-hydroxycyclohexylamino)-8-(2,4,6-trichlorophenylamino)-9H-purin-9-yl)cyclohexanecarboxamide]

- IC50 [2]: > 1000 nM
SMILES: NC(=O)[C@H]1CC[C@@H](n2c(Nc3c(Cl)cc(Cl)cc3Cl)nc3cnc(NC4CCC(c5ncno5)CC4)nc32)CC1 (stereo partly drawn) [Example 678, (1s,4s)-4-(2-(4-(1,2,4-oxadiazol-5-yl)cyclohexylamino)-8-(2,4,6-trichlorophenylamino)-9H-purin-9-yl)cyclohexanecarboxamide]

- IC50 [3]: > 1000 nM
SMILES: Cc1cc(Cl)cc(Cl)c1Nc1nc2cnc(NC3CCOCC3)nc2n1[C@H]1CC[C@@H](C(N)=O)CC1 [Example 103, (1s,4s)-4-(8-(2,4-dichloro-6-methylphenylamino)-2-(tetrahydro-2H-pyran-4-ylamino)-9H-purin-9-yl)cyclohexanecarboxamide]

- IC50 [1]: > 1000 nM
SMILES: C[C@]1(O)CCC[C@@H](Nc2ncc3nc(Nc4c(F)cc(Cl)cc4F)n([C@H]4CC[C@@H](C(N)=O)CC4)c3n2)C1 [Example 426, (1S,4s)-4-(8-(4-chloro-2,6-difluorophenylamino)-2-((1R,3S)-3-hydroxy-3-methylcyclohexylamino)-9H-purin-9-yl)cyclohexanecarboxamide]

- IC50 [3]: > 1000 nM
SMILES: CS(=O)(=O)N1CCC(Nc2ncc3nc(Nc4c(Cl)cccc4Cl)n([C@H]4CC[C@@H](C(N)=O)CC4)c3n2)CC1 [Example 293, (1s,4s)-4-(8-(2,6-dichlorophenylamino)-2-(1-(methylsulfonyl)piperidin-4-ylamino)-9H-purin-9-yl)cyclohexanecarboxamide]

- IC50 [1]: > 1000 nM
SMILES: C[C@]1(O)CCC[C@@H](Nc2ncc3nc(Nc4c(F)cc(F)cc4Cl)n([C@H]4CC[C@@H](C(N)=O)CC4)c3n2)C1 [Example 425, (1S,4s)-4-(8-(2-chloro-4,6-difluorophenylamino)-2-((1R,3S)-3-hydroxy-3-methylcyclohexylamino)-9H-purin-9-yl)cyclohexanecarboxamide]

- IC50 [2]: < 250 nM
SMILES: N#Cc1cc(Cl)c(Nc2nc3cnc(N[C@@H]4CCC(O)C4)nc3n2[C@H]2CC[C@@H](C(N)=O)CC2)c(Cl)c1 (stereo partly drawn) [Example 683, (1S,4s)-4-(8-(2,6-dichloro-4-cyanophenylamino)-2-((1R,3R)-3-hydroxycyclopentylamino)-9H-purin-9-yl)cyclohexanecarboxamide]

- IC50 [3]: 500 to 1000 nM
SMILES: Cc1ccc(Nc2nc3cnc(NC4CCOCC4)nc3n2[C@H]2CC[C@@H](C(N)=O)CC2)c(Cl)c1F [Example 84, (1s,4s)-4-(8-(2-chloro-3-fluoro-4-methylphenylamino)-2-(tetrahydro-2H-pyran-4-ylamino)-9H-purin-9-yl)cyclohexanecarboxamide]

- IC50 [3]: > 1000 nM
SMILES: NC(=O)[C@H]1CC[C@@H](n2c(Nc3c(F)cc(F)cc3F)nc3cnc(NC4COC4)nc32)CC1 [Example 55, (1s,4s)-4-(2-(oxetan-3-ylamino)-8-(2,4,6-trifluorophenylamino)-9H-purin-9-yl)cyclohexanecarboxamide]
